Experimental data: patent US5114935A, “Substituted 6-benzyl-2H-3,4,5,6-tetrahydro-(1,3)-oxazines” (Dr. Karl Thomae GmbH, priority 1989, dated 1992)
Counter-ions that a name gives are not always drawn. Like-named read-outs stand apart in the source and are kept apart here.

What was measured:
[1] = test system: mechanically provoked coughing; assay: Antitussive activity: mechanically provoked coughing in anaesthetised cats; type: in vivo, cat; conditions: for ED50: Felis catus, iv, read-out: ED50 after parallel adjustment (50% reduction in the number of coughs)
Method: The antitussive activity of the compound 6-(p-chlorobenzyl)-3,5,6-trimethyl-2H-3, 4, 5, 6-tetrahydro-oxazine (1,3)-hydrochloride was tested as follows:
33 male and female cats with a body weight of 3.4 to 4.5 kg were anaesthetised with pentobarbital-Na (45 mg/kg as an initial bolus i.p. and then, spread throughout the experiment, several times as required, 7.5 or 15 mg/kg i.v.). Care was taken to keep the animals at about stage 1 to 2 (Guedel) of the tolerance stage.
Coughing fits were provoked mechanically by the insertion of a plastic catheter with a rounded tip, diameter about 1.5 mm, into the trachea as far as the bifurcation. At each time of irritation, a series of 3 stimuli were carried out at intervals of about 30 seconds. The coughing fits were always provoked 5, 25 and 45 minutes after administration of the test substance or vehicle.
The test substance was administered as a solution in 0.9% NaCl solution through a catheter in the V. femoralis. The injected volume was not more than 0.5 ml/kg. Before administration of the substance, the effect of the vehicle was tested on each animal.
By linear regression analysis and linear covariance analysis, the ED50 value (50% reduction in the number of coughs) was determined after parallel adjustment (Table 2).

[2] = test system: opiate receptors; assay: Test of Binding to the Opiate Receptor: inhibition of 3H-diprenorphine binding; set-up: species or system rat; conditions: up to 100 μM; 0.5 nM 3H-diprenorphine

With `CC1CN(C)COC1(C)Cc1ccc(Cl)cc1` (stereo not drawn) [Active substance, 6-(p-chloro-benzyl)-3,5,6-trimethyl-2H-3,4,5,6-tetrahydro-oxazine(1,3)-hydrochloride] the “Percentage inhibition of coughing, MW ± SE” value ([1]; 0.5 mg/kg i.v., after 5 minutes, n=5) was 26.7 ± 8.5%, the “Percentage inhibition of coughing, MW ± SE” value ([1]; 0.5 mg/kg i.v., after 25 minutes, n=5) was 16.7 ± 10.5% and the “Percentage inhibition of coughing, MW ± SE” value ([1]; 0.5 mg/kg i.v., after 45 minutes, n=5) was 23.3 ± 10.0%. For the same molecule, the “Percentage inhibition of coughing, MW ± SE” value ([1]; 0.705 mg/kg i.v., after 5 minutes, n=5) was 23.3 ± 6.7%, the “Percentage inhibition of coughing, MW ± SE” value ([1]; 0.705 mg/kg i.v., after 25 minutes, n=5) was 13.3 ± 6.2% and the “Percentage inhibition of coughing, MW ± SE” value ([1]; 0.705 mg/kg i.v., after 45 minutes, n=5) was 13.3 ± 3.3%. For the same molecule, the “Percentage inhibition of coughing, MW ± SE” value ([1]; 1.0 mg/kg i.v., after 5 minutes, n=5) was 33.3 ± 18.3%, the “Percentage inhibition of coughing, MW ± SE” value ([1]; 1.0 mg/kg i.v., after 25 minutes, n=5) was 40.0 ± 16.3% and the “Percentage inhibition of coughing, MW ± SE” value ([1]; 1.0 mg/kg i.v., after 45 minutes, n=5) was 36.7 ± 3.3%. For the same molecule, the “Percentage inhibition of coughing, MW ± SE” value ([1]; 1.41 mg/kg i.v., after 5 minutes, n=5) was 63.3 ± 13.3%, the “Percentage inhibition of coughing, MW ± SE” value ([1]; 1.41 mg/kg i.v., after 25 minutes, n=5) was 53.3 ± 16.2% and the “Percentage inhibition of coughing, MW ± SE” value ([1]; 1.41 mg/kg i.v., after 45 minutes, n=5) was 50.0 ± 18.3%. For the same molecule, the “Percentage inhibition of coughing, MW ± SE” value ([1]; 2.0 mg/kg i.v., after 5 minutes, n=5) was 33.3 ± 17.5%, the “Percentage inhibition of coughing, MW ± SE” value ([1]; 2.0 mg/kg i.v., after 25 minutes, n=5) was 53.3 ± 14.3% and the “Percentage inhibition of coughing, MW ± SE” value ([1]; 2.0 mg/kg i.v., after 45 minutes, n=5) was 36.7 ± 17.0%. The “Percentage inhibition of coughing, MW ± SE” value ([1]; 2.83 mg/kg i.v., after 5 minutes, n=5) was 36.7 ± 14.3%, the “Percentage inhibition of coughing, MW ± SE” value ([1]; 2.83 mg/kg i.v., after 25 minutes, n=5) was 43.3 ± 13.5% and the “Percentage inhibition of coughing, MW ± SE” value ([1]; 2.83 mg/kg i.v., after 45 minutes, n=5) was 40.0 ± 11.3%. For the same molecule, the “Percentage inhibition of coughing, MW ± SE” value ([1]; 4.0 mg/kg i.v., after 5 minutes, n=5) was 60.0 ± 11.3%, the “Percentage inhibition of coughing, MW ± SE” value ([1]; 4.0 mg/kg i.v., after 25 minutes, n=5) was 63.3 ± 13.3% and the “Percentage inhibition of coughing, MW ± SE” value ([1]; 4.0 mg/kg i.v., after 45 minutes, n=5) was 46.7 ± 9.7%. The “Percentage inhibition of coughing, MW ± SE” value ([1]; 5.64 mg/kg i.v., after 5 minutes, n=5) was 70.0 ± 20.0%, the “Percentage inhibition of coughing, MW ± SE” value ([1]; 5.64 mg/kg i.v., after 25 minutes, n=5) was 70.0 ± 20.0% and the “Percentage inhibition of coughing, MW ± SE” value ([1]; 5.64 mg/kg i.v., after 45 minutes, n=5) was 63.3 ± 17.0%. The “Percentage inhibition of coughing, MW ± SE” value ([1]; 8.0 mg/kg i.v., after 5 minutes, n=3) was 44.4 ± 29.4%, the “Percentage inhibition of coughing, MW ± SE” value ([1]; 8.0 mg/kg i.v., after 25 minutes, n=3) was 50.0 ± 25.5% and the “Percentage inhibition of coughing, MW ± SE” value ([1]; 8.0 mg/kg i.v., after 45 minutes, n=3) was 44.4 ± 20.0%. The ED50 ([1]; 5 min, 5 minutes after administration) was 2.6 mg/kg, the ED50 ([1]; 25 min, 25 minutes after administration) was 2.4 mg/kg and the ED50 ([1]; 0.75 h, 45 minutes after administration) was 3.2 mg/kg. For the same molecule, the “effect on the number of mechanically provoked coughs” value ([1]; intravenously, 0.5 to 8 mg/kg) was “reducing the number of mechanically provoked coughs”, the “cough-suppressing effect, doses and testing times at which observed” value ([1]; intravenously, 0.5 to 8 mg/kg, 5, 25 and 45 minutes) was “observed from the lowest administered dose upwards, at every testing time” and the “inhibition of 3H-diprenorphine binding” value [2] was “no inhibition”.
